Where a name gives a salt, the structure may show the parent alone.
Test system: 1csc colony cells obtained from MDA-MB-231 cells
Experiment: In vitro cell viability after drug treatment (CCK-8)
Format: cell-based, human
Conditions: 1csc colony cells versus cells from 2Dcells, Ucells and Mcells cultures; 24 hours treatment; FIG. 6A-6B
Procedure: For 2Dcells culture, human MDA-MB-231, MCF-7, PC-3, and OVCAR-8 cancer cells were cultured in Corning (Lowell, MA, USA) T75 flasks in DMEM, EMEM, F12K, and RPMI-1640 medium supplemented with 10% FBS and 1% penicillin/streptomycin at 37° C. in a humidified 5% CO2 incubator, respectively. For Ucells culture, cells were cultured in Corning (Lowell, MA, USA) 6-well ultralow attachment plate (ULAP) at a density of 20,000 cells ml^−1 in CSC medium consisting of serum-free DMEM/F12 supplemented with 5 μg ml^−1 insulin, 20 ng ml^−1 epidermal growth factor (EGF), 20 ng ml^−1 basic fibroblast growth factor (bFGF), 1×B27 (Invitrogen, Carlsbad, CA, USA), 0.4% (w v^−1) bovine serum albumin, 100 U ml^−1 penicillin, and 100 μg ml^−1 streptomycin. The cell spheroids or aggregates were collected after 7 days for further experiments. For lcsc and Mcells cultures, microcapsules encapsulated with one (for 1csc) or multiple (for Mcells) cells were cultured in the aforementioned CSC medium. To determine viability of cells under 2Dcells culture, cells were transferred into 96-well plates first. […] The cell viability was then evaluated using the CCK-8 cell proliferation reagent per the manufacturer's instructions. Cell viability was calculated as the ratio of the cell number determined for each group with a treatment to that of control group with no treatment.

Row | Compound | resistance of the 1csc colony cells to the drug (cell viability)
1 | CCc1c2c(nc3ccc(OC(=O)N4CCC(N5CCCCC5)CC4)cc13)-c1cc3c(c(=O)n1C2)COC(=O)[C@]3(O)CC [CPT-11, Irinotecan/camptothecin-11] | significantly more resistant
2 | COc1cccc2c1C(=O)c1c(O)c3c(c(O)c1C2=O)C[C@@](O)(C(=O)CO)C[C@@H]3O[C@H]1C[C@H](N)[C@H](O)[C@H](C)O1 [DOX, Doxorubicin hydrochloride] | significantly more resistant

From patent US12630796B2, “System, device, and method for single-cell encapsulation and culture” (UNIVERSITY OF MARYLAND, COLLEGE PARK, priority 2020, dated 2026)
